Experimental data published in ChEMBL document CHEMBL5303768, “Data for DCP probe TP-060” (2023).
Activity calls are given as the source filed them. The rule behind the calls is not given here.

Columns and labels:
[1] = target: Voltage-gated potassium channel, IKs; KCNQ1(Kv7.1)/KCNE1(MinK) (Homo sapiens, UniProt P15382+P51787); assay: (§1) Safety47 Scan (DiscoverX - Eurofins); format: protein-complex assay
[2] = target: Neuronal acetylcholine receptor; alpha4/beta2 (Homo sapiens, UniProt P17787+P43681); assay: as §1; format: protein-complex assay
Chain of Neuronal acetylcholine receptor; alpha4/beta2 (P17787 whole entry): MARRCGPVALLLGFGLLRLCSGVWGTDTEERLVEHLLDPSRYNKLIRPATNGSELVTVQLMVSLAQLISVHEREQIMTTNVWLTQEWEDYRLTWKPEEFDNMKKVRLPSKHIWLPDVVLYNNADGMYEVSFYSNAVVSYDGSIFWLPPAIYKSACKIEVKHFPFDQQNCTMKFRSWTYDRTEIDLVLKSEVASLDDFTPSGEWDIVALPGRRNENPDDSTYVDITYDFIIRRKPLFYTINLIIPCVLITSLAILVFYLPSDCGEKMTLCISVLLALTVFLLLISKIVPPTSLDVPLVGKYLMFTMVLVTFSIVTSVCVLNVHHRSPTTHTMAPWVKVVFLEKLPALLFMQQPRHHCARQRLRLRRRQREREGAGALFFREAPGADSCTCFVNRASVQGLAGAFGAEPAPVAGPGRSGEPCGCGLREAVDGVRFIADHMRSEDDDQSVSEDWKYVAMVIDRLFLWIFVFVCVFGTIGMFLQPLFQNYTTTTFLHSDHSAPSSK
Chain of Neuronal acetylcholine receptor; alpha4/beta2 (P43681 whole entry): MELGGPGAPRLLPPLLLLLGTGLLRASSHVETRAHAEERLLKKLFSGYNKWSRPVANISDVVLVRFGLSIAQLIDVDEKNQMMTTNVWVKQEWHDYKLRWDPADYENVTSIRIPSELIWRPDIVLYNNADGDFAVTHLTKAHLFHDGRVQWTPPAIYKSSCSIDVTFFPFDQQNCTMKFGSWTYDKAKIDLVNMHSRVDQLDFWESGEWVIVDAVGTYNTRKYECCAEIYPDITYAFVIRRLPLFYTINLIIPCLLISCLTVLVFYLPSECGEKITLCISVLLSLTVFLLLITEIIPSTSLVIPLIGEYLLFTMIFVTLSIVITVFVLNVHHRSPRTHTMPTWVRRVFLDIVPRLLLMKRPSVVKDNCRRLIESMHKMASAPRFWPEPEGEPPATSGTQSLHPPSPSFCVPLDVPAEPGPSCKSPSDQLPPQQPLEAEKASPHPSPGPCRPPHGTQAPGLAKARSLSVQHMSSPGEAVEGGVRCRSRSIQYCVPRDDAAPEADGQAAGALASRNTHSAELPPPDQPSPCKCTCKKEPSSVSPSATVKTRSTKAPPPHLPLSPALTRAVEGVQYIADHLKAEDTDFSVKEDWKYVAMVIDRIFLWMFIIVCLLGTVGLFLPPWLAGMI

[3] = target: Voltage-dependent L-type calcium channel subunit alpha-1C (Homo sapiens, UniProt Q13936); assay: as §1; set-up: species or system Rattus norvegicus; details: target entry is the homologue from another species
[4] = as §1; set-up: species or system Rattus norvegicus
[5] = target: T1, Ceramide glucosyltransferase (Homo sapiens, UniProt Q16739); assay: Cellular GlcCer reduction; format: functional, tissue-based, fibroblast
T1 sequence (Q16739 whole entry): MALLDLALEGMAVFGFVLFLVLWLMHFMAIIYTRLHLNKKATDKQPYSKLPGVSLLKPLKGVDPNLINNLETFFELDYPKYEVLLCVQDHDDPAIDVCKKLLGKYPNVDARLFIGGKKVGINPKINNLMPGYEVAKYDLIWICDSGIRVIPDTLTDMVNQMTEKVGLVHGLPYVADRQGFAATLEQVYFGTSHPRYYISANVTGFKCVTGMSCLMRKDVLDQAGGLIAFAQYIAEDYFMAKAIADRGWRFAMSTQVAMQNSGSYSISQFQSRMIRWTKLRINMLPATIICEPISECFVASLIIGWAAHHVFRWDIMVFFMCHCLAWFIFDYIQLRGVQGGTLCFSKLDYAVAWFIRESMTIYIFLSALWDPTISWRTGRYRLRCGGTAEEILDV

[6] = target: Glutamate NMDA receptor; GRIN1/GRIN2B (Homo sapiens, UniProt Q05586+Q13224); assay: as §1; format: protein-complex assay, Rattus norvegicus; details: target entry is the homologue from another species
[7] = target: cGMP-inhibited 3',5'-cyclic phosphodiesterase 3A (Homo sapiens, UniProt Q14432); assay: as §1
[8] = target: Beta-1 adrenergic receptor (Homo sapiens, UniProt P08588); assay: as §1
[9] = target: Tyrosine-protein kinase Lck (Homo sapiens, UniProt P06239); assay: as §1
Histamine H1 receptor = Histamine H1 receptor (Homo sapiens, UniProt P35367); assay: as §1
[10] = target: Cholecystokinin receptor type A (Homo sapiens, UniProt P32238); assay: as §1
[11] = target: Prostaglandin G/H synthase 1 (Homo sapiens, UniProt P23219); assay: as §1
Androgen receptor = Androgen receptor (Homo sapiens, UniProt P10275); assay: as §1
[12] = target: Sodium-dependent noradrenaline transporter (Homo sapiens, UniProt P23975); assay: as §1
Vasopressin V1a receptor = Vasopressin V1a receptor (Homo sapiens, UniProt P37288); assay: as §1
[13] = target: 5-hydroxytryptamine receptor 1B (Homo sapiens, UniProt P28222); assay: as §1
[14] = target: Muscarinic acetylcholine receptor M2 (Homo sapiens, UniProt P08172); assay: as §1
Acetylcholinesterase = Acetylcholinesterase (Homo sapiens, UniProt P22303); assay: as §1
D(1A) dopamine receptor = D(1A) dopamine receptor (Homo sapiens, UniProt P21728); assay: as §1
Chain of D(1A) dopamine receptor (P21728 whole entry): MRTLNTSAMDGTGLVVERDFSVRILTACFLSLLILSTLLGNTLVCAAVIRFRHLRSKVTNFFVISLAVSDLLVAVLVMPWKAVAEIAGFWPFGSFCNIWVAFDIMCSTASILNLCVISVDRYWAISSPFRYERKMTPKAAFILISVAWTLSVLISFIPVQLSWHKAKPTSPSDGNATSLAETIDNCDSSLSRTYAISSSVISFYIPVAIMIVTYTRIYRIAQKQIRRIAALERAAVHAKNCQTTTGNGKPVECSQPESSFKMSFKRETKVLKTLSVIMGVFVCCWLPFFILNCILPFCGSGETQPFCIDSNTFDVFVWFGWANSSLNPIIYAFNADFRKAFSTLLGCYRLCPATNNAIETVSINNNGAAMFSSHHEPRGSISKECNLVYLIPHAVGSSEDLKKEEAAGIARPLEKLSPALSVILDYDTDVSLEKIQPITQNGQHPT

[15] = target: Sodium-dependent dopamine transporter (Homo sapiens, UniProt Q01959); assay: as §1
[16] = target: 5-hydroxytryptamine receptor 3A (Homo sapiens, UniProt P46098); assay: as §1
Chain of 5-hydroxytryptamine receptor 3A (P46098 whole entry): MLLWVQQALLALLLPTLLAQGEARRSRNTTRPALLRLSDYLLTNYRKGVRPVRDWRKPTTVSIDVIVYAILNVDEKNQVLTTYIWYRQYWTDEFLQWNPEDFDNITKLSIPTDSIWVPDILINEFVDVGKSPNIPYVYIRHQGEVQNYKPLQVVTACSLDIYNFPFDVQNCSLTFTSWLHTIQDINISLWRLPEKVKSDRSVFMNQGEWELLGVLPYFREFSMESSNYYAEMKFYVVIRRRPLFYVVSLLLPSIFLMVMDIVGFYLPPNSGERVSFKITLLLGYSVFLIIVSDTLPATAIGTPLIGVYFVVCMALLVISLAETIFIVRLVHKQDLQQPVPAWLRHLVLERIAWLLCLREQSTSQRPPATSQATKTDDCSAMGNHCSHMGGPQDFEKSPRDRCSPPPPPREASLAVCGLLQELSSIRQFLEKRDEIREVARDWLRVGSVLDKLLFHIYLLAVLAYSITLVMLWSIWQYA

Glucocorticoid receptor = Glucocorticoid receptor (Homo sapiens, UniProt P04150); assay: as §1
[17] = target: Kappa-type opioid receptor (Homo sapiens, UniProt P41145); assay: as §1
Chain of Kappa-type opioid receptor (P41145 whole entry): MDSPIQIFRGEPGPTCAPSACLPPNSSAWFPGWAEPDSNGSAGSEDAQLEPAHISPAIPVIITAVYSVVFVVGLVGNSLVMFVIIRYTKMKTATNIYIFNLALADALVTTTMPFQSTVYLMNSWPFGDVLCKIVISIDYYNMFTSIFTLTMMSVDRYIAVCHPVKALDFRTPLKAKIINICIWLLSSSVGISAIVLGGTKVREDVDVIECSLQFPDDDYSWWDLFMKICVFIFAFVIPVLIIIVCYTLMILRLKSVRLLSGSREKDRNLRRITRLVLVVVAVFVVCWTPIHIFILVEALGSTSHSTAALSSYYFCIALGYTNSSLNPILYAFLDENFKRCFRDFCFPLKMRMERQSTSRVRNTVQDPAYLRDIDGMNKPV

[18] = target: 5-hydroxytryptamine receptor 2A (Homo sapiens, UniProt P28223); assay: as §1
Chain of 5-hydroxytryptamine receptor 2A (P28223 whole entry): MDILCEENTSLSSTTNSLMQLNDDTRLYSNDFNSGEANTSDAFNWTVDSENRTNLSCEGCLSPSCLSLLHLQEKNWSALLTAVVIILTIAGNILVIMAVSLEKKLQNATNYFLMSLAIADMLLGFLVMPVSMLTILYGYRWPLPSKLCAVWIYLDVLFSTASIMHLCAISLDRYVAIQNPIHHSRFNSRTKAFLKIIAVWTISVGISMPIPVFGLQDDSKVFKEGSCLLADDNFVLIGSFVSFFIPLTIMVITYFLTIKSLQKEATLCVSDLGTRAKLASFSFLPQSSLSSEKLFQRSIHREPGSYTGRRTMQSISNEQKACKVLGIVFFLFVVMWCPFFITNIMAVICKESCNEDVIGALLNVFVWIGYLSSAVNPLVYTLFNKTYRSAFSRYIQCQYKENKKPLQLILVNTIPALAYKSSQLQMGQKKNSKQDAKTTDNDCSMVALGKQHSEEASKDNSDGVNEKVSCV

Cannabinoid receptor 1 = Cannabinoid receptor 1 (Homo sapiens, UniProt P21554); assay: as §1
Endothelin-1 receptor = Endothelin-1 receptor (Homo sapiens, UniProt P25101); assay: as §1
[19] = target: 3',5'-cyclic-AMP phosphodiesterase 4D (Homo sapiens, UniProt Q08499); assay: as §1
Mu-type opioid receptor = Mu-type opioid receptor (Homo sapiens, UniProt P35372); assay: as §1
[20] = target: Rho-associated protein kinase 1 (Homo sapiens, UniProt Q13464); assay: as §1
[21] = target: Muscarinic acetylcholine receptor M3 (Homo sapiens, UniProt P20309); assay: as §1
Chain of Muscarinic acetylcholine receptor M3 (P20309 whole entry): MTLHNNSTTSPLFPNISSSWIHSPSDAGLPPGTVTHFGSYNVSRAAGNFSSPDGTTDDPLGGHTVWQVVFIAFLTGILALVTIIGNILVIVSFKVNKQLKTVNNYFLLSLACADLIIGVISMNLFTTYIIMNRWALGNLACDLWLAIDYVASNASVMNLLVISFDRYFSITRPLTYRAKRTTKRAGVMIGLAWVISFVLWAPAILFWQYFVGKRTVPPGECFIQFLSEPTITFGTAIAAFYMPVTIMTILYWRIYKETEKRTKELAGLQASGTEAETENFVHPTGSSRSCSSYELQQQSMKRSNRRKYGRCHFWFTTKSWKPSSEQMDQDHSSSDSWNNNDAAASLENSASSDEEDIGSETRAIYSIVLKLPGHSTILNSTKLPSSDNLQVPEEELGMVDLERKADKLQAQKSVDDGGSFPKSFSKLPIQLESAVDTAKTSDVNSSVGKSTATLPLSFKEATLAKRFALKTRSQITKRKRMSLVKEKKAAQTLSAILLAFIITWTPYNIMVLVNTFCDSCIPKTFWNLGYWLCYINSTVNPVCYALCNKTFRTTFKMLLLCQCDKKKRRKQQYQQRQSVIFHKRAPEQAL

[22] = target: 5-hydroxytryptamine receptor 1A (Homo sapiens, UniProt P08908); assay: as §1
D(2) dopamine receptor = D(2) dopamine receptor (Homo sapiens, UniProt P14416); assay: as §1
[23] = target: Beta-2 adrenergic receptor (Homo sapiens, UniProt P07550); assay: as §1
Chain of Beta-2 adrenergic receptor (P07550 whole entry): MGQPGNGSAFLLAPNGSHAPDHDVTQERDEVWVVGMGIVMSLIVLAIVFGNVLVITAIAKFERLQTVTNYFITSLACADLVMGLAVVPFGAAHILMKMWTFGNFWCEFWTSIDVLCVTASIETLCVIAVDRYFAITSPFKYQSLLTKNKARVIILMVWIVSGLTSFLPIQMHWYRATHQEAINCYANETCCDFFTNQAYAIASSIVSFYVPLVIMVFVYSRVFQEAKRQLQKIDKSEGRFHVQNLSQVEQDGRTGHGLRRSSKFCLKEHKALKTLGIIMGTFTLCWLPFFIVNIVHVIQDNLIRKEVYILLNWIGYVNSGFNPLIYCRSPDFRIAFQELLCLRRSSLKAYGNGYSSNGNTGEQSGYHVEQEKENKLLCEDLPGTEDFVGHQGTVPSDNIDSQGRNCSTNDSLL

[24] = target: Alpha-1A adrenergic receptor (Homo sapiens, UniProt P35348); assay: as §1
Chain of Alpha-1A adrenergic receptor (P35348 whole entry): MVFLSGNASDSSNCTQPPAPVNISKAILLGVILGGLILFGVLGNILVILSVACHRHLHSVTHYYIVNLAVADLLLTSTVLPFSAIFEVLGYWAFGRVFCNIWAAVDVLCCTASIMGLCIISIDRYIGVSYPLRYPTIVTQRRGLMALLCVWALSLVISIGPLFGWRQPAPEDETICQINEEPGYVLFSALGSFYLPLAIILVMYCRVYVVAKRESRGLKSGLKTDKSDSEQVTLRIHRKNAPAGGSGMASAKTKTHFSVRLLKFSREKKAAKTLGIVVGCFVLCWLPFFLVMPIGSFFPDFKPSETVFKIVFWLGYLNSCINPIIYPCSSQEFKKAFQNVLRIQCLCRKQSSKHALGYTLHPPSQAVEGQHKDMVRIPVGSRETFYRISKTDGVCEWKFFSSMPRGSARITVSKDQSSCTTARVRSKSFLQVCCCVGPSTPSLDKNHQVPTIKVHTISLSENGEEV

[25] = target: Delta-type opioid receptor (Homo sapiens, UniProt P41143); assay: as §1
Chain of Delta-type opioid receptor (P41143 whole entry): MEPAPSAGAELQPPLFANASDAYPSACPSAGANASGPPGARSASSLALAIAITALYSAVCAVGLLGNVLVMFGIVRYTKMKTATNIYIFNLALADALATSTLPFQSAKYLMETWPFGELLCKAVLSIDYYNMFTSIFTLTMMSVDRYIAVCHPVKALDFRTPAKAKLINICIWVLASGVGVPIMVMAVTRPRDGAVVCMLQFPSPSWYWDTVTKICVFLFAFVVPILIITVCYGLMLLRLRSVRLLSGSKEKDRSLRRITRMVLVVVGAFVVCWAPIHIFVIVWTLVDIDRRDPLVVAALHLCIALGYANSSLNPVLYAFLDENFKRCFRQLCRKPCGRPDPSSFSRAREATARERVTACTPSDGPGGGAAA

Cannabinoid receptor 2 = Cannabinoid receptor 2 (Homo sapiens, UniProt P34972); assay: as §1
[26] = target: Vascular endothelial growth factor receptor 2 (Homo sapiens, UniProt P35968); assay: as §1
[27] = target: Voltage-gated inwardly rectifying potassium channel KCNH2 (Homo sapiens, UniProt Q12809); assay: as §1
[28] = target: Alpha-2A adrenergic receptor (Homo sapiens, UniProt P08913); assay: as §1
[29] = target: Muscarinic acetylcholine receptor M1 (Homo sapiens, UniProt P11229); assay: as §1
Insulin receptor = Insulin receptor (Homo sapiens, UniProt P06213); assay: as §1
Histamine H2 receptor = Histamine H2 receptor (Homo sapiens, UniProt P25021); assay: as §1
[30] = target: Amine oxidase [flavin-containing] A (Rattus norvegicus, UniProt P21396); assay: as §1
[31] = target: 5-hydroxytryptamine receptor 2B (Homo sapiens, UniProt P41595); assay: as §1
[32] = target: Prostaglandin G/H synthase 2 (Homo sapiens, UniProt P35354); assay: as §1
Adenosine receptor A2a = Adenosine receptor A2a (Homo sapiens, UniProt P29274); assay: as §1
[33] = target: Sodium channel protein type 5 subunit alpha (Homo sapiens, UniProt Q14524); assay: as §1
[34] = target: Ceramide glucosyltransferase (Mus musculus, UniProt O88693); assay: Mouse GCS enzymatic assay; format: functional
[35] = target: T1, Ceramide glucosyltransferase; assay: Human GCS enzymatic assay; format: functional

Question: Which EC50 [1] does the source give for CC(C)(O)c1ccc(N2Cc3c(ccnc3-c3ccc(F)cc3OCC(F)(F)F)C2=O)cc1 here?
Answer: > 10 µM

Question: What about the IC50 [1] of the same compound?
Answer: > 10 µM

Question: And the EC50 [2]?
Answer: > 10 µM

Question: What about the IC50 [2] of the same compound?
Answer: 6.5 µM

Question: And the IC50 [3]?
Answer: > 10 µM

Question: What about the EC50 [4] of the same compound?
Answer: > 10 µM

Question: And the IC50 [4]?
Answer: > 10 µM

Question: And the EC50 [5]?
Answer: 0.0076 µM (active)

Question: What about the EC50 [6] of the same compound?
Answer: > 10 µM

Question: What about the IC50 [6] of the same compound?
Answer: > 10 µM

Question: And the IC50 [7]?
Answer: > 10 µM

Question: What about the EC50 [8] of the same compound?
Answer: > 10 µM

Question: What about the IC50 [8] of the same compound?
Answer: > 10 µM

Question: And the IC50 [9]?
Answer: > 10 µM

Question: What about the EC50 (Histamine H1 receptor) of the same compound?
Answer: > 10 µM

Question: What about the IC50 (Histamine H1 receptor) of the same compound?
Answer: > 10 µM

Question: And the EC50 [10]?
Answer: > 10 µM

Question: What about the IC50 [10] of the same compound?
Answer: > 10 µM

Question: And the IC50 [11]?
Answer: > 10 µM

Question: What about the EC50 (Androgen receptor) of the same compound?
Answer: > 10 µM

Question: What about the IC50 (Androgen receptor) of the same compound?
Answer: > 10 µM

Question: And the IC50 [12]?
Answer: > 10 µM

Question: And the EC50 (Vasopressin V1a receptor)?
Answer: > 10 µM

Question: What about the IC50 (Vasopressin V1a receptor) of the same compound?
Answer: > 10 µM

Question: And the EC50 [13]?
Answer: 2.8 µM

Question: And the IC50 [13]?
Answer: > 10 µM

Question: What about the EC50 [14] of the same compound?
Answer: > 10 µM

Question: What about the IC50 [14] of the same compound?
Answer: > 10 µM

Question: What about the IC50 (Acetylcholinesterase) of the same compound?
Answer: > 10 µM

Question: What about the EC50 (D(1A) dopamine receptor) of the same compound?
Answer: > 10 µM

Question: And the IC50 (D(1A) dopamine receptor)?
Answer: > 10 µM

Question: What about the IC50 [15] of the same compound?
Answer: > 10 µM

Question: And the EC50 [16]?
Answer: > 10 µM

Question: And the IC50 [16]?
Answer: > 10 µM

Question: What about the EC50 (Glucocorticoid receptor) of the same compound?
Answer: > 10 µM

Question: And the IC50 (Glucocorticoid receptor)?
Answer: > 10 µM

Question: What about the EC50 [17] of the same compound?
Answer: > 10 µM

Question: What about the IC50 [17] of the same compound?
Answer: > 10 µM

Question: And the EC50 [18]?
Answer: > 10 µM

Question: What about the IC50 [18] of the same compound?
Answer: > 10 µM

Question: What about the EC50 (Cannabinoid receptor 1) of the same compound?
Answer: > 10 µM

Question: What about the IC50 (Cannabinoid receptor 1) of the same compound?
Answer: > 10 µM

Question: What about the EC50 (Endothelin-1 receptor) of the same compound?
Answer: > 10 µM

Question: And the IC50 (Endothelin-1 receptor)?
Answer: > 10 µM

Question: What about the IC50 [19] of the same compound?
Answer: > 10 µM

Question: And the EC50 (Mu-type opioid receptor)?
Answer: > 10 µM

Question: And the IC50 (Mu-type opioid receptor)?
Answer: > 10 µM

Question: What about the IC50 [20] of the same compound?
Answer: > 10 µM

Question: What about the EC50 [21] of the same compound?
Answer: > 10 µM

Question: What about the IC50 [21] of the same compound?
Answer: > 10 µM

Question: And the EC50 [22]?
Answer: > 10 µM

Question: And the IC50 [22]?
Answer: > 10 µM

Question: And the EC50 (D(2) dopamine receptor)?
Answer: > 10 µM

Question: And the IC50 (D(2) dopamine receptor)?
Answer: > 10 µM

Question: What about the EC50 [23] of the same compound?
Answer: > 10 µM

Question: What about the IC50 [23] of the same compound?
Answer: > 10 µM

Question: What about the EC50 [24] of the same compound?
Answer: > 10 µM

Question: What about the IC50 [24] of the same compound?
Answer: > 10 µM

Question: What about the EC50 [25] of the same compound?
Answer: > 10 µM

Question: And the IC50 [25]?
Answer: > 10 µM

Question: What about the EC50 (Cannabinoid receptor 2) of the same compound?
Answer: > 10 µM

Question: What about the IC50 (Cannabinoid receptor 2) of the same compound?
Answer: > 10 µM

Question: What about the IC50 [26] of the same compound?
Answer: > 10 µM

Question: And the IC50 [27]?
Answer: > 10 µM

Question: What about the EC50 [28] of the same compound?
Answer: > 10 µM

Question: And the IC50 [28]?
Answer: > 10 µM

Question: What about the EC50 [29] of the same compound?
Answer: > 10 µM

Question: And the IC50 [29]?
Answer: > 10 µM

Question: What about the IC50 (Insulin receptor) of the same compound?
Answer: > 10 µM

Question: What about the EC50 (Histamine H2 receptor) of the same compound?
Answer: > 10 µM

Question: What about the IC50 (Histamine H2 receptor) of the same compound?
Answer: > 10 µM

Question: And the IC50 [30]?
Answer: > 10 µM

Question: And the EC50 [31]?
Answer: > 10 µM

Question: What about the IC50 [31] of the same compound?
Answer: > 10 µM

Question: What about the IC50 [32] of the same compound?
Answer: > 10 µM

Question: And the EC50 (Adenosine receptor A2a)?
Answer: > 10 µM

Question: And the IC50 (Adenosine receptor A2a)?
Answer: > 10 µM

Question: And the IC50 [33]?
Answer: > 10 µM

Question: With COc1cccc(-c2nccc3c2CN(c2ccccc2)C3=O)c1 as the compound, how does the EC50 [5] read?
Answer: > 10 µM (not active)

Question: What about the IC50 [34] of the same compound?
Answer: > 100 µM (not active)

Question: And the IC50 [35]?
Answer: > 100 µM (not active)
